What was measured:
[1] = tested on: DGGCs; experiment: Ca2+ imaging with calcium green-1 in DGGCs of hippocampal slices, whole-cell mode; assay type: cell-based, mice; settings: M084 and ML204 together, 10 μm
Experimental: (§1) Hippocampal Slice Preparation. […] Hippocampal slices were maintained in oxygenated ACSF at 30° C. for 60 min and experiments were performed at 25° C.
Ca2^+ Imaging. Concurrent with patch-clamp electrophysiology, neurons in slices were also imaged (Nikon FN-1, 40× water-immersion objective) via the fluorescent Ca^2+-reporter dye calcium green-1. As a hexapotassium salt, the dye (10 μm) was added to the intracellular patch pipette solution and neurons were patched under whole-cell clamp, as described above. Cells were loaded for 10 min before image acquisition. Fluorescence intensity was obtained using a SOLA Light Engine illumination source (Lumencor) with an output of 3.5 W through a 3-mm-diameter liquid light guide through a Nikon ET-GFP filter. Nikon Elements software was used for image acquisition through a QIClick CCD camera (QImaging). Images were acquired with an exposure time of 200 ms every 2 min using a single-channel, 12-bit rate and no binning. The shutter was closed between each acquisition. For each cell, the corrected total cell fluorescence was measured as the integrated density intensity—(cell area*mean background emission). Ca^2+ signals were measured as the change in fluorescence relative to the baseline fluorescence (ΔF/F0). Averages of four images were thresholded at 10%, masked using a highly averaged image of the cell, and encoded with a pseudocolor look-up table. Group cell fluorescence data were averaged in comparison with normalized intensity at each time point.

[2] = tested on: DGGCs; experiment: Patch-clamp / current-clamp recordings of DGGCs in hippocampal slices (action potentials, AHP, IM amplitude); assay type: cell-based, mice
Experimental: as §1

[3] = tested on: pilocarpine-induced seizures; experiment: Pilocarpine-induced chemoconvulsant seizure model; assay type: in vivo, mice; settings: M084 10 mg/kg 30 min before pilocarpine 280 mg/kg, n=8
Experimental: After administration of scopolamine (1 mg/kg), control mice were pretreated with saline vehicle and then were administered pilocarpine (280 mg/kg) 30 min later.
The muscarinic agonist pilocarpine was used to induce seizures in vivo. Two-month-old mice were injected with scopolamine methylnitrate (1 mg/kg; MP Biomedicals) to block peripheral mAChRs 30 min before administration of pilocarpine hydrochloride (280 mg/kg; Sigma-Aldrich). Drugs were delivered via intraperitoneal injection in 0.9% sterile saline at a total volume equivalent to 1% of the mouse body weight. Control mice were given the same dose of scopolamine followed by vehicle saline 30 min later. […] Peak seizure activity was observed 60 min after pilocarpine delivery with occasional forelimb clonus.

[4] = tested on: DGGCs; experiment: GCaMP6f brain slice Ca2+ imaging of DGGCs after sham or CCI-TBI; assay type: cell-based, mice
Excerpt: Neuromodulation of TRPC generates robust Ca2+ influx and facilitates neuronal hyperexcitability. […] To assess the post-injury effect of TRPC channel upregulation on neurons, we used Ca2+ imaging in brain slice to measure excitability as a product of intracellular Ca2+ gating by TRPC1/4/5 channels (FIG. 4). […] Transgenic mice with the GCaMP6f transgene were used to detect changes in cellular Ca2+-activated fluorescence. We hypothesized that DGGC activity increases due to muscarinic stimulation with ACh or direct activation of TRPC4-containing channels with EA. Sensitivity was tested by bath perfusion of ACh or EA to the slice for 5 minutes during Ca2+ imaging to quantify peak amplitude of GCaMP6f fluorescence per cell, duration of Ca2+ influx, and the field-frequency of events (FIG. 4).
Brain slice Ca2+ imaging. Transverse slices (300 μm) of hippocampus were cut with a vibratome (Thermo Scientific Microm HM650V) from Cre-CamK2+/GCamp6f+/− mice. […] Hippocampal slices were maintained in oxygenated ACSF at 30° C. for 60 min, and experiments performed at 28° C. […] Neurons were visually identified with a Nikon FN-1 microscope equipped with a 40× water-immersion objective and infrared differential interference contrast. GCaMP6f fluorescence was obtained using a SOLA Light Engine Illumination source (Lumecor) with an output of 3.5W through a 3 mm diameter liquid light guide through a Nikon ET-GFP filter. Nikon Elements software was used for image acquisition through a QIClick CCD camera (Qlmaging) with a Uniblitz Model VMM-D 1 shutter driver. Baseline time series of the DG granule layer were acquired in the presence of bath solution perfusion for 2 min. […] Images were acquired in time series with an exposure time of 200 ms at 2-10 fps at 12-bit rate and no binning. Time-series image stacks were processed with ImageJ. Images were background subtracted using the mean of the 5% lowest pixel values. Ca2+ signal events were quantified for each cell as change in fluorescence divided by the baseline fluorescence (ΔF/FO) after background subtraction. ROI signals were detrended before quantification to account for drift due to gradual photobleaching of the background.

[5] = tested on: TRPC4/5 channels; settings: description from literature; cited from earlier work
[6] = target: T1, TRPC3 (Homo sapiens, UniProt Q13507); settings: description; cited from earlier work
T1 sequence (Q13507 1-921): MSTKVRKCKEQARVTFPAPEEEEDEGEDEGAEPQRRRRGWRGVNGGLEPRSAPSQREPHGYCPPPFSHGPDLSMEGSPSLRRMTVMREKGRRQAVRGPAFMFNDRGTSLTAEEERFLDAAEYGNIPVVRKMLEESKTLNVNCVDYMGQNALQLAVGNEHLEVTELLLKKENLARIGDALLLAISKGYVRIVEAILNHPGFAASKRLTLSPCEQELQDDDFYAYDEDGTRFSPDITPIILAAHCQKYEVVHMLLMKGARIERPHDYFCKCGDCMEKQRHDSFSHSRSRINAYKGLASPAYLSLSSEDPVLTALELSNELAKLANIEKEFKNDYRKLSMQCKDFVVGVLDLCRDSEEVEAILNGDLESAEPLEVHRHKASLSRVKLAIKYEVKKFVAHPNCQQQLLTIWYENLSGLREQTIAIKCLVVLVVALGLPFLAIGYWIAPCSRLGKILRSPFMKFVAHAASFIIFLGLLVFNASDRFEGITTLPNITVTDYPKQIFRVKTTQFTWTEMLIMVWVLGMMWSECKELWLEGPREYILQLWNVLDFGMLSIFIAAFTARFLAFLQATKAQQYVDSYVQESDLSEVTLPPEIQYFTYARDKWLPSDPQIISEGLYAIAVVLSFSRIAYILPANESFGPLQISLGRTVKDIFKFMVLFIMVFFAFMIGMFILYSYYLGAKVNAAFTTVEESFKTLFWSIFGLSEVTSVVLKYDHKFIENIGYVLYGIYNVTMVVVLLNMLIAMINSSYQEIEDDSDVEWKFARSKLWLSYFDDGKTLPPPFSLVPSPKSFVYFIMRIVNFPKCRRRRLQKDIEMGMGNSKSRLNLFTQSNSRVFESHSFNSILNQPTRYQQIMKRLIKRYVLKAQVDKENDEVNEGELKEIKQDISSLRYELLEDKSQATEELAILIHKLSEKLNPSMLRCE

[7] = 2015, cited from earlier work
[8] = TRPC4/5 channels blocked, control or plus 77-LH-28-1 3 μM

CCCCNc1nc2ccccc2[nH]1 [M084, N-butyl-1H-benzimidazol-2-amine]
maximum calcium-green 1 emission on muscarinic stimulation [1]: 1.61±0.21 fold
action potential threshold ([2]; M084 10 μm only, n=8 cells): −45.4±1.3 mV
action potential firing rate on M1R agonist ([2]; TRPC4/5 blockade with M084 10 μm, 77-LH-28-1 3 μm): did not increase
AHP amplitude [2, 8]: 13.2 ± 0.7 mV
AHP area [2, 8]: 196.8 ± 13.3 ms* mV
AHP decay [2, 8]: 14.8 ± 0.7 ms
membrane potential values (voltage floor), control ACSF vs 77-LH-28-1 3 μm ([2]; in presence of M084 10 μm): no significant differences
mean maximum Racine seizure stage [3]: 1.1±0.5
status epilepticus [3]: not observed in any animal
Ca2+ peak amplitude ([4]; EA 1 μM + M084 10 μM, ipsilateral DGGCs from TBI mice): 1.44±0.05 ΔF/F
duration of Ca2+ influx ([4]; M084 10 μM added to EA 1 μM): attenuated the duration of influx to baseline levels
effect on TRPC4/5 channels [5]: potent inhibitor or antagonist
effect on TRPC3 [6]: weak inhibitor or antagonist
brain concentration at time of PTZ challenge ([7]; 1 hour after M084 10 mg/kg s.c., inferred from Yang et al.): likely within the micromolar range
blood-brain barrier crossing ([7]; Yang et al.): crosses the blood-brain barrier
